Reference: US20070142462A1, “Method of Treating Cancer” (The University of Utah, priority 2000, published 2007)

Test system: M1619 cells
Experiment: DNA cell cycle analysis by flow cytometry
Format: cell-based, human
Conditions: 3,000 U/ml catalase, 24 hours
Experimental: DNA Cell Cycle Measurements. To study the effect of antioxidant treatments on the DNA cell cycle, cells were grown to near confluence in 25 cm^2 plastic flasks and treated for 24 hours. Cells were typsinized, washed twice in cold DPBS with 1 mM EDTA and 1% bovine serum albumin (BSA), fixed 30 min in ice-cold 70% ethanol, and stained by incubation for 30 min at 37° C. in a 10 μg/ml solution of propidium iodide in DPBS and 1 mg/ml RNase A. DNA cell cycle measurements were made using a FACStar^PLUS Flow Cytometer (Becton-Dickenson, San Jose, Calif.).
Near confluent monolayers of M1619 cells were incubated in RPMI 1640 and 10% FBS in the presence or absence of 3,000 U/ml catalase. After 24 hours, cells were harvested, ethanol-fixed, permeabilized with proteinase K, stained with propidium iodide and subjected to DNA cell cycle analysis. Whereas a large fraction (30.2%) of untreated cells (FIG. 6A) were tetraploid, only 12.8% of catalase-treated cells (FIG. 6B) were tetraploid. […] G2-M was hidden by tetraploid G0-G1 or by debris and could not be analyzed.

## Catalase
Untreated 30.2%
  fraction of cells tetraploid: 12.8%
Untreated 41.2%
  total percentage of cells in S-phase: 56.7%
